The results in this text go back to BindingDB's records for patent US10106535 (Chdi Foundation, 2018).

The target in this assay is Histone deacetylase 4 (Homo sapiens, UniProt P56524). Put plainly: Biochemical HDAC-4 Assay. As to the method: 5 μl of each solution of 1:20 diluted compound from above is transferred to a clear bottomed, black, 384-well assay plate using the Bravo or the Janus (384-well MDT head from Perkin Elmer). Using a 16-channel Matrix multi-channel pipette, 35 μl of the working solution of HDAC4 catalytic domain enzyme (0.2 μg/ml in assay buffer) is transferred to the assay plate. The assay is then started by adding 10 μl of 5× (50 μM) substrate to the assay plates using either the Bravo, Janus or 16-channel Matrix multi-channel pipette. The assay plate is then shaken for two minutes on an orbital shaker at 900 rpm (rotations per minute). Next the plate is incubated for 15 minutes at 37° C. The reaction is stopped by adding 25 μl of 3× (30 μM) developer/stop solution to the assay plates using either the Bravo, Janus or a 16-channel Matrix multi-channel pipette. Assay plates are then shaken for 5 minutes on an orbital shaker at 1200 rpm. Next, the assay plates are incubated at 37° C. for 1 hour in a tissue culture incubator. Finally, the fluorescence is measured (Excitation: 355 nm, Emission: 460 nm) using PerkinElmer EnVision in top read mode.
Sequence of Histone deacetylase 4 (P56524 whole entry, the tested form may be a part): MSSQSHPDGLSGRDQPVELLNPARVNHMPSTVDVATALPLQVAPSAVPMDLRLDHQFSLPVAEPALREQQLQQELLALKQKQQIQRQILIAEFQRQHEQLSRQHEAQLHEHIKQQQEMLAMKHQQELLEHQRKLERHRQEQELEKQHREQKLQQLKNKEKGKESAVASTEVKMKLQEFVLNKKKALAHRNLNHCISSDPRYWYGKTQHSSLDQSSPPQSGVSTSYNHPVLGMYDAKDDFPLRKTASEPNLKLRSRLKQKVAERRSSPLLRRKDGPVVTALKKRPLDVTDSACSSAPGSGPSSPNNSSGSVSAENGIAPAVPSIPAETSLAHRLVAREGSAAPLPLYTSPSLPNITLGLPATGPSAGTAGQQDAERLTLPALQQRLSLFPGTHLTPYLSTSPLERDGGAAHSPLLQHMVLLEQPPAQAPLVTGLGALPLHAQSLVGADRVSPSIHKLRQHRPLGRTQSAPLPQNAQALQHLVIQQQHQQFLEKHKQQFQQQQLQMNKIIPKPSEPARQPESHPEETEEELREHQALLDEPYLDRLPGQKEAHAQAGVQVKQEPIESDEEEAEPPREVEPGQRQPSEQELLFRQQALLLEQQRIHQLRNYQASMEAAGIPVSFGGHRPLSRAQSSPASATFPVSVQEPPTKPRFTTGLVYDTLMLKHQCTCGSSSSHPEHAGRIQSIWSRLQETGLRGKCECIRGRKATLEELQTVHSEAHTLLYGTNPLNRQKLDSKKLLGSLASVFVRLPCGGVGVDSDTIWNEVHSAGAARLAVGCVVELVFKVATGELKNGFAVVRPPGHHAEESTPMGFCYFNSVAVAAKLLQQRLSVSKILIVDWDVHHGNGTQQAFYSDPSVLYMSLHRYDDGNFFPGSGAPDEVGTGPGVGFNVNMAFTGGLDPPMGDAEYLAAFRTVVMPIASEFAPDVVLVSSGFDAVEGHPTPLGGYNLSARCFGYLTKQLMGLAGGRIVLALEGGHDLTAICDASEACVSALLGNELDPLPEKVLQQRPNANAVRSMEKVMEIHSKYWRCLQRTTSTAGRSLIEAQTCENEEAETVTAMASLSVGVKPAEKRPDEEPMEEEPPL

The structures appear in SMILES notation.

Usually IC50 stands for the midpoint of a concentration-inhibition curve. A lower IC50 goes with greater potency. `O=C(NO)C1C=CCC1c1ccccc1` (stereo unspecified) [US10106535, Example 30] came in with an IC50 of 12.3 µM. This lies in the double-digit micromolar range.
